Laboratory results reported in patent publication US20100168179A1, “6-ALKENYL-, 6-ALKINYL- AND 6-EPOXY-EPOTHILONE DERIVATIVES, PROCESS FOR THEIR PRODUCTION, AND THEIR USE IN PHARMACEUTICAL PREPARATIONS” (priority 1999, published 2010).
Blank lines part the entries; values can stand above or below the compound they belong to.

Tests used:
MCF-7 = assay: growth inhibition of human MCF-7 breast carcinoma cell line, crystal-violet assay; type: cell-based
Excerpt: (§1) In Vitro Activity of Epothilone Derivatives on Human Tumor Cell Lines
(§2) a) IC50 values [nM] for the growth inhibition of human MCF-7-breast and multi-drug-resistant NCl/ADR-carcinoma cell lines of epothilone derivatives with 13Z-unsaturated in the crystal-violet assay in comparison to Taxol.
(§3) b) IC50 values [nM] for the growth inhibition of human MCF-7-breast- and multi-drug-resistant NCl/ADR carcinoma cell lines of epothilone derivative with 13,14-α-epoxide, which was formed from the 13-Z-configured double bond in the crystal-violet assay in comparison to Taxol.
(§4) c) IC50 values [nM] for the growth inhibition of human MCF-7-breast- and multi-drug-resistant NCl/ADR-carcinoma cell lines of epothilone derivatives with 13,14-epoxide, which was formed from the 13-E-configured double bond, in a crystal-violet assay in comparison to Taxol.

NCl/ADR = assay: growth inhibition of multi-drug-resistant NCl/ADR carcinoma cell line, crystal-violet assay; type: cell-based, human; details: for IC50: crystal-violet assay, multi-drug-resistant line; for Selectivity = IC50-(NCl/ADR): IC50 (MCF-7): Table 1, ratio NCl/ADR to MCF-7
Excerpt: as §1, §2, §3, §4

[1] = Table 2, 13,14-α-epoxide formed from the 13-Z-configured double bond
[2] = Table 2, ratio NCl/ADR to MCF-7
[3] = Table 3, 13,14-epoxide formed from the 13-E-configured double bond
[4] = Table 3, ratio NCl/ADR to MCF-7
[5] = Table 1, epothilone derivatives with 13Z-unsaturated

SMILES: C#CCC[C@H]1C(=O)C(C)(C)[C@@H](O)CC(=O)O[C@H](/C(C)=C/c2ccccn2)C[C@@H]2OC2(C)CCC[C@H](C)[C@@H]1O (single isomer, unassigned) [Example 6A or B]
IC50 (MCF-7; [3]): 0.0043 µM
IC50 (NCl/ADR; [3]): 0.068 µM
Selectivity = IC50-(NCl/ADR): IC50-(MCF-7) (NCl/ADR; [4]): 15.8

SMILES: C=CC[C@H]1C(=O)C(C)(C)[C@@H](O)CC(=O)O[C@H](c2ccc3oc(C)nc3c2)C/C=C(/C)CCC[C@H](C)[C@@H]1O [Example 21, (4S,7R,8S,9S,13Z,16S(E))-4,8-Dihydroxy-16-(2-methyl-benzoxazol-5-yl)-1-oxa-5,5,9,13-tetramethyl-7-(prop-2-en-1-yl)-cyclohexadec-13-ene-2,6-dione]
IC50 (MCF-7; [5]): 0.032 µM

SMILES: C=CC[C@H]1C(=O)C(C)(C)[C@@H](O)CC(=O)O[C@H](/C(C)=C/c2csc(C)n2)C[C@@H]2O[C@]2(C)CCC[C@H](C)[C@@H]1O [Example 10A, (1S,3S(E),7S,10R,11S,12S,16R)-7,11-Dihydroxy-10-(prop-2-en-1-yl)-3-(1-methyl-2-(2-methylthiazol-4-yl)ethenyl)-8,8,12,16-tetramethyl-4,17-dioxabicyclo[14.1.0]heptadecane-5,9-dione]
IC50 (MCF-7; [1]): 0.0012 µM
IC50 (NCl/ADR; [1]): 0.0036 µM
Selectivity = IC50-(NCl/ADR): IC50-(MCF-7) (NCl/ADR; [2]): 3.0

SMILES: C=CCC[C@H]1C(=O)C(C)(C)[C@@H](O)CC(=O)O[C@H](/C(C)=C/c2ccccn2)C[C@@H]2O[C@]2(C)CCC[C@H](C)[C@@H]1O [Example 5A, (1S,3S(E),7S,10R,11S,12S,16R)-7,11-Dihydroxy-10-(but-3-en-1-yl)-3-(1-methyl-2-(2-pyridyl)ethenyl)-8,8,12,16-tetramethyl-4,17-dioxabicyclo[14.1.0]heptadecane-5,9-dione]
IC50 (MCF-7; [1]): 0.0031 µM
IC50 (NCl/ADR; [1]): 0.0038 µM
Selectivity = IC50-(NCl/ADR): IC50-(MCF-7) (NCl/ADR; [2]): 1.2

SMILES: C=CC[C@H]1C(=O)C(C)(C)[C@@H](O)CC(=O)O[C@H](/C(C)=C/c2csc(C)n2)C/C=C(/C)CCC[C@H](C)[C@@H]1O [Example 9, (4S,7R,8S,9S,13Z,16S(E))-4,8-Dihydroxy-16-(1-methyl-2-(2-methylthiazol-4-yl)ethenyl)-1-oxa-5,5,9,13-tetramethyl-7-(prop-2-en-1-yl)-cyclohexadec-13-ene-2,6-dione]
IC50 (MCF-7; [5]): 0.017 µM
IC50 (NCl/ADR; [5]): 0.041 µM
Selectivity = IC50-(NCl/ADR): IC50 (MCF-7) (NCl/ADR): 2.4

SMILES: C#CCC[C@H]1C(=O)C(C)(C)[C@@H](O)CC(=O)O[C@H](/C(C)=C/c2ccccn2)C[C@@H]2O[C@]2(C)CCC[C@H](C)[C@@H]1O [Example 4A, (1S,3S(E),7S,10R,11S,12S,16R)-7,11-Dihydroxy-10-(but-3-in-1-yl)-3-(1-methyl-2-(2-pyridyl)ethenyl)-8,8,12,16-tetramethyl-4,17-dioxabicyclo[14.1.0]heptadecane-5,9-dione]
IC50 (MCF-7; [1]): 0.0013 µM
IC50 (NCl/ADR; [1]): 0.0091 µM
Selectivity = IC50-(NCl/ADR): IC50-(MCF-7) (NCl/ADR; [2]): 7.0

SMILES: C#CCC[C@H]1C(=O)C(C)(C)[C@@H](O)CC(=O)O[C@H](/C(C)=C/c2ccccn2)C/C=C(/C)CCC[C@H](C)[C@@H]1O [Example 1, (4S,7R,8S,9S,13Z,16S(E))-4,8-Dihydroxy-16-(1-methyl-2-(2-pyridyl)ethenyl)-1-oxa-5,5,9,13-tetramethyl-7-(but-3-in-1-yl)-cyclohexadec-13-ene-2,6-dione]
IC50 (MCF-7; [5]): 0.03 µM
IC50 (NCl/ADR; [5]): 0.075 µM
Selectivity = IC50-(NCl/ADR): IC50 (MCF-7) (NCl/ADR): 2.5

SMILES: C#CC[C@H]1C(=O)C(C)(C)[C@@H](O)CC(=O)O[C@H](/C(F)=C/c2csc(C)n2)C/C=C(/C)CCC[C@H](C)[C@@H]1O [Example 23, (4S,7R,8S,9S,13Z,16S(Z))-4,8-Dihydroxy-16-(1-fluoro-2-(2-methylthiazol-4-yl)ethenyl)-7-(prop-2-in-1-yl)-1-oxa-5,5,9,13-tetramethyl-cyclohexadec-13-ene-2,6-dione]
IC50 (MCF-7; [5]): 0.011 µM
IC50 (NCl/ADR; [5]): 0.062 µM
Selectivity = IC50-(NCl/ADR): IC50 (MCF-7) (NCl/ADR): 5.6

SMILES: C=CCC[C@H]1C(=O)C(C)(C)[C@@H](O)CC(=O)O[C@H](/C(C)=C/c2ccccn2)C/C=C(/C)CCC[C@H](C)[C@@H]1O [Example 2, (4S,7R,8S,9S,13Z,16S(E))-4,8-Dihydroxy-16-(1-methyl-2-(2-pyridyl)ethenyl)-1-oxa-5,5,9,13-tetramethyl-7-(but-3-en-1-yl)-cyclohexadec-13-ene-2,6-dione]
IC50 (MCF-7; [5]): 0.025 µM
IC50 (NCl/ADR; [5]): 0.07 µM
Selectivity = IC50-(NCl/ADR): IC50 (MCF-7) (NCl/ADR): 2.8

More lines, main results first:

IC50 (MCF-7; [1]): 0.0023 µM
IC50 (NCl/ADR; [1]): 0.011 µM
Selectivity = IC50-(NCl/ADR): IC50-(MCF-7) (NCl/ADR; [2]): 4.8
SMILES: C#CC[C@H]1C(=O)C(C)(C)[C@@H](O)CC(=O)O[C@H](/C(F)=C/c2csc(C)n2)C[C@@H]2O[C@]2(C)CCC[C@H](C)[C@@H]1O [Example 25, (1S,3S(Z),7S,10R,11S,12S,16R)-7,11-Dihydroxy-3-(1-fluoro-2-(2-methyl-4-thiazolyl)ethenyl)-10-(prop-2-in-1-yl)-8,8,12,16-tetramethyl-4,17-dioxabicyclo[14.1.0]heptadecane-5,9-dione]

IC50 (MCF-7; [3]): 0.018 µM
IC50 (NCl/ADR; [3]): 0.06 µM
Selectivity = IC50-(NCl/ADR): IC50-(MCF-7) (NCl/ADR; [4]): 3.3
SMILES: C#CC[C@H]1C(=O)C(C)(C)[C@@H](O)CC(=O)O[C@H](/C(F)=C/c2csc(C)n2)C[C@@H]2O[C@@]2(C)CCC[C@H](C)[C@@H]1O [Example 26A or B, (1S,3S(Z),7S,10R,11S,12S,16S)-7,11-Dihydroxy-3-(1-fluoro-2-(2-methyl-4-thiazolyl)ethenyl)-10-(prop-2-in-1-yl)-8,8,12,16-tetramethyl-4,17-dioxabicyclo[14.1.0]heptadecane-5,9-dione]

IC50 (MCF-7; [3]): 0.04 µM
IC50 (NCl/ADR; [3]): 0.061 µM
Selectivity = IC50-(NCl/ADR): IC50-(MCF-7) (NCl/ADR; [4]): 1.5
SMILES: C=CC[C@H]1C(=O)C(C)(C)[C@@H](O)CC(=O)O[C@H](/C(C)=C/c2csc(C)n2)C[C@H]2O[C@]2(C)CCC[C@H](C)[C@@H]1O [Example 12A or B, (1R,3S(E),7S,10R,11S,12S,16R)-7,11-Dihydroxy-10-(prop-2-en-1-yl)-3-(1-methyl-2-(2-methylthiazol-4-yl)ethenyl)-8,8,12,16-tetramethyl-4,17-dioxabicyclo[14.1.0]heptadecane-5,9-dione]

IC50 (MCF-7; [5]): 0.025 µM
IC50 (NCl/ADR; [5]): 0.041 µM
Selectivity = IC50-(NCl/ADR): IC50 (MCF-7) (NCl/ADR): 1.6
SMILES: C#CC[C@H]1C(=O)C(C)(C)[C@@H](O)CC(=O)O[C@H](/C(F)=C/c2coc(C)n2)C/C=C(/C)CCC[C@H](C)[C@@H]1O [Example 27, (4S,7R,8S,9S,13Z,16S(Z))-4,8-Dihydroxy-16-(1-fluoro-2-(2-methyloxazol-4-yl)ethenyl)-7-(prop-2-in-1-yl)-1-oxa-5,5,9,13-tetramethyl-cyclohexadec-13-ene-2,6-dione]

IC50 (MCF-7; Homo sapiens, MCF7, Table 1, epothilone derivatives with 13Z-unsaturated): 0.0035 µM
IC50 (NCl/ADR; Homo sapiens, Table 1, epothilone derivatives with 13Z-unsaturated): > 0.1 µM
Selectivity = IC50-(NCl/ADR): IC50 (MCF-7) (NCl/ADR): >28.6
IC50 (NCl/ADR; [1]): > 0.1 µM
Selectivity = IC50-(NCl/ADR): IC50-(MCF-7) (NCl/ADR; [2]): >29
IC50 (NCl/ADR; [3]): > 0.1 µM
Selectivity = IC50-(NCl/ADR): IC50-(MCF-7) (NCl/ADR; [4]): >29
SMILES: CC(=O)O[C@H]1C(=O)[C@@]2(C)[C@H]([C@H](OC(=O)c3ccccc3)[C@]3(O)C[C@H](OC(=O)[C@H](O)[C@@H](NC(=O)c4ccccc4)c4ccccc4)C(C)=C1C3(C)C)[C@]1(OC(C)=O)CO[C@@H]1C[C@@H]2O [Taxol, reference compound]
action on the multi-drug-resistant cell line NCl/ADR (NCl/ADR; in words, in comparison to Taxol): not exhibited

IC50 (MCF-7; [3]): 0.0048 µM
IC50 (NCl/ADR; [3]): 0.053 µM
Selectivity = IC50-(NCl/ADR): IC50-(MCF-7) (NCl/ADR; [4]): 11.0
SMILES: C=CC[C@H]1C(=O)C(C)(C)[C@@H](O)CC(=O)O[C@H](/C(C)=C/c2csc(C)n2)CC2O[C@@]2(C)CCC[C@H](C)[C@@H]1O (single isomer, unassigned) [Example 12B or A]

IC50 (MCF-7; [5]): 0.025 µM
SMILES: C=CC[C@H]1C(=O)C(C)(C)[C@@H](O)CC(=O)O[C@H](/C(C)=C/c2ccccn2)C/C=C(/C)CCC[C@H](C)[C@@H]1O [Example 15, (4S,7R,8S,9S,13Z,16S(E))-4,8-Dihydroxy-16-(1-methyl-2-(2-pyridyl)ethenyl)-1-oxa-5,5,9,13-tetramethyl-7-(prop-2-en-1-yl)-cyclohexadec-13-ene-2,6-dione]

IC50 (MCF-7; [5]): 0.034 µM
SMILES: C#CC[C@H]1C(=O)C(C)(C)[C@@H](O)CC(=O)O[C@H](/C(C)=C/c2ccccn2)C/C=C(/C)CCC[C@H](C)[C@@H]1O [Example 13, (4S,7R,8S,9S,13Z,16S(E))-4,8-Dihydroxy-16-(1-methyl-2-(2-pyridyl)ethenyl)-1-oxa-5,5,9,13-tetramethyl-7-(prop-2-in-1-yl)-cyclohexadec-13-ene-2,6-dione]
